The record followed here is patent US8778966B2, “Quinolinone derivatives as PARP and tank inhibitors” (Janssen Pharmaceutica, NV, priority 2007, dated 2014).

This assay addresses T1, TANK-2 enzyme (Homo sapiens, UniProt Q9H2K2).
T1 construct: made in house
T1 sequence (Q9H2K2 1-1166): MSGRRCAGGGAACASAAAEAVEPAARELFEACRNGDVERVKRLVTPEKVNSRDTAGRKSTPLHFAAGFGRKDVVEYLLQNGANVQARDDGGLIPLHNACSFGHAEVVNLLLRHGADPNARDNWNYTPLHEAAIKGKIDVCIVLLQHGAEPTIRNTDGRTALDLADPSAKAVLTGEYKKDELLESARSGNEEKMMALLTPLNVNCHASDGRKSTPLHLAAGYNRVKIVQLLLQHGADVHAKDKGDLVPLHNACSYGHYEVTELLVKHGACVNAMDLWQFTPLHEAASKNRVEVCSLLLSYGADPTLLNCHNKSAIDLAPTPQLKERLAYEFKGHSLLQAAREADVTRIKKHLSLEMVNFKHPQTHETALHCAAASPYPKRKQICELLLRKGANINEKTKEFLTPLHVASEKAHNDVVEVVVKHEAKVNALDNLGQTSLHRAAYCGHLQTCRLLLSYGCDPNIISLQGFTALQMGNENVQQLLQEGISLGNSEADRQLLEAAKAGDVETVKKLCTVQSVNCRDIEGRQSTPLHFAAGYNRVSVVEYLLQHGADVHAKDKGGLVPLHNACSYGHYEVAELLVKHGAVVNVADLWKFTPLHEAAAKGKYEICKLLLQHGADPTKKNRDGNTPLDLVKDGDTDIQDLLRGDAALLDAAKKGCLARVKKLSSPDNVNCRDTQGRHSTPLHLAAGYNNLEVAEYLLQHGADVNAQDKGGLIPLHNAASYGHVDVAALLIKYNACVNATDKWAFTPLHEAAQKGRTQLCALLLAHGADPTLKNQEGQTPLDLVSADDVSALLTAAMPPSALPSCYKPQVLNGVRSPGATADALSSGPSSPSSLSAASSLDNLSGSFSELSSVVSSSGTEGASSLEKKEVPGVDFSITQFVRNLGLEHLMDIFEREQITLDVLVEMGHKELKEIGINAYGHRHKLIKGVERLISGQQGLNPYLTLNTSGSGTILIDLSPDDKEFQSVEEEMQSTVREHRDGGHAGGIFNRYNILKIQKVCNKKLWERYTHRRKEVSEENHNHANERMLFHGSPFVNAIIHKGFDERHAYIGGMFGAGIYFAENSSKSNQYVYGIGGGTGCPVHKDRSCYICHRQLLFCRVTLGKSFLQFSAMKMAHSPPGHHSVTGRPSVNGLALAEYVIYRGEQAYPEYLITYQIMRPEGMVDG
Briefly: In vitro Scintillation Proximity Assay (SPA) for TANK-2 inhibitory activity. It is filed as biochemical. Particulars: read-out: in vitro SPA assay TANK-2 pIC50 (converted). An outline of the steps:
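TANK-2 (8 μg/ml final) auto-poly(ADP-ribosyl)ation with [3H]-NAD+/NAD donor was run in Ni flash plates in Tris/HCl pH 7.4 buffer with DTT and MgCl2, 120 min at room temperature, then stopped with excess NAD and scintillation-counted. Blank-corrected cpm was expressed as % of enzyme control, and IC50 was linearly interpolated and reported as pIC50.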
(Scintillation proximity formats need no separation of bound from free tracer.)
In the case of `CCc1cc2ccc(C(C)(C#N)Cc3cccc(C#N)n3)cc2[nH]c1=O` (single isomer, unassigned) [Compound 206], the IC50 was 50.1 nM.
As for `CCc1cc2ccc(C(C)(C#N)Cc3cccc(C#N)n3)cc2[nH]c1=O` (single isomer, unassigned) [Compound 207], the IC50 is 31.6 nM.
Under `CCc1cc2ccc([C@@](C)(C#N)Cc3cccc(N(C)C)c3)cc2[nH]c1=O` (single isomer, unassigned) [Compound 258] stands 501 nM.
Take `CCc1cc2ccc([C@](C)(C#N)Cc3cccc(N(C)C)c3)cc2[nH]c1=O` (single isomer, unassigned) [Compound 259]: the IC50 is 200 nM.
For `CCC[C@@](C#N)(Cc1ccccc1)c1ccc2cc(CC)c(=O)[nH]c2c1` (single isomer, unassigned) [Compound 263] the value was 2000 nM; for `CCC[C@](C#N)(Cc1ccccc1)c1ccc2cc(CC)c(=O)[nH]c2c1` (single isomer, unassigned) [Compound 264], 2510 nM; for `CCc1cc2ccc([C@@](C)(C#N)Cc3cccc(C#N)c3)cc2[nH]c1=O` (single isomer, unassigned) [Compound 268], 79.4 nM.
For `CCc1cc2ccc([C@](C)(C#N)Cc3cccc(C#N)c3)cc2[nH]c1=O` (single isomer, unassigned) [Compound 269] the value was 158 nM; for `CCc1cc2ccc([C@](C)(C#N)C[C@@H]3Cc4cc(C)ccc4O3)cc2[nH]c1=O` (single isomer, unassigned) [Compound 400], 501 nM.
Take `C#Cc1cccc(C[C@](C)(C#N)c2ccc3cc(CC)c(=O)[nH]c3c2)c1` [Compound 2]: the IC50 is 398 nM.
Under `C#Cc1cccc(C[C@@](C)(C#N)c2ccc3cc(CC)c(=O)[nH]c3c2)c1` [Compound 3] stands 501 nM; under `CCc1cc2ccc(C(C#N)(CC)Cc3ccccc3)cc2[nH]c1=O` (centres unmarked) [Compound 32], 79.4 nM; under `COc1ccccc1-c1nc(CC(C)(C#N)c2ccc3cc(C)c(=O)[nH]c3c2)no1` (centres unmarked) [Compound 33], 158 nM.
Under `Cc1cc2ccc(C(C)(C#N)Cc3cccc(C#N)c3)cc2[nH]c1=O` (centres unmarked) [Compound 34] stands 31.6 nM; under `Cc1cc2ccc([C@@](C)(C#N)Cc3cccc(C#N)c3)cc2[nH]c1=O` [Compound 35], 316 nM.
For `Cc1cc2ccc([C@](C)(C#N)Cc3cccc(C#N)c3)cc2[nH]c1=O` [Compound 36] the value was 200 nM.
As to `Cc1cc2ccc(C(C)(C#N)Cc3cccc(Cl)c3)cc2[nH]c1=O` (centres unmarked) [Compound 37], the IC50 is 79.4 nM.
Regarding `CC(C)c1cc2ccc(C(C)(C#N)Cc3ccccc3)cc2[nH]c1=O` (centres unmarked) [Compound 38], the IC50 was 501 nM.
For `CC(=O)c1cc2ccc(C(C)(C#N)Cc3ccccc3)cc2[nH]c1=O` (centres unmarked) [Compound 39] the value was 316 nM.
Take `CCc1cc2ccc(C(C)(C#N)Cc3cccc(OC[C@@H](O)CO)c3)cc2[nH]c1=O` (some centres unmarked) [Compound 56]: the IC50 was 1580 nM.
On to `CCc1cc2ccc(C(C)(C#N)Cc3cccc(CCC#N)c3)cc2[nH]c1=O` (centres unmarked) [Compound 169], for which the IC50 was 398 nM.
Under `CCc1cc2ccc(C(C)(C#N)Cc3cccc(CNS(C)(=O)=O)c3)cc2[nH]c1=O` (centres unmarked) [Compound 170] stands 794 nM; under `C=Cc1cccc(CC(C)(C#N)c2ccc3cc(CC)c(=O)[nH]c3c2)c1` (centres unmarked) [Compound 172], 794 nM.
Under `CCc1cc2cc(F)c(C(C)(C#N)Cc3cccc(C#N)c3)cc2[nH]c1=O` (centres unmarked) [Compound 175] stands 100 nM; under `CCc1c(C)c2ccc(C(C)(C#N)Cc3cccc(C#N)c3)cc2[nH]c1=O` (centres unmarked) [Compound 181], 158 nM; under `CCc1cc2cc(OCCOC)c(C(C)(C#N)Cc3cccc(C#N)c3)cc2[nH]c1=O` (centres unmarked) [Compound 182], 31.6 nM.
Take `CCc1cc2ccc(C(C)(C#N)Cc3cccc(C#CCO)c3)cc2[nH]c1=O` (centres unmarked) [Compound 183]: the IC50 is 794 nM.
With `CCc1cc2ccc(C(F)(C#N)Cc3ccccc3)cc2[nH]c1=O` (centres unmarked) [Compound 187], the IC50 is 316 nM.
Under `CCc1cc2ccc(C(C)(C#N)CN(C)Cc3ccccc3)cc2[nH]c1=O` (centres unmarked) [Compound 189] stands 2510 nM; under `CCc1cc2ccc(C(C)(C#N)C(C)c3ccccc3)cc2[nH]c1=O` (centres unmarked) [Compound 198], 794 nM; under `CCc1cc2ccc([C@](C)(C#N)[C@@H](C)c3ccccc3)cc2[nH]c1=O` [Compound 199], 1260 nM.
For `CCc1cc2ccc([C@](C)(C#N)[C@H](C)c3ccccc3)cc2[nH]c1=O` [Compound 200] the value was 1260 nM.
Under `CCc1cc2ccc(C(C)(C#N)Cc3cccc(C#C[Si](C)(C)C)n3)cc2[nH]c1=O` (centres unmarked) [Compound 210] stands 3980 nM.
As for `C#Cc1cccc(CC(C)(C#N)c2ccc3cc(CC)c(=O)[nH]c3c2)n1` (centres unmarked) [Compound 211], the IC50 was 398 nM.
As to `CCc1cc2ccc(C(C)(C#N)Cc3cccc(N(C)C)n3)cc2[nH]c1=O` (centres unmarked) [Compound 213], the IC50 was 126 nM.
For `CCc1cc2ccc(C(C)(C#N)Cc3cccc(I)n3)cc2[nH]c1=O` (centres unmarked) [Compound 214] the value was 50.1 nM; for `CCOC(=O)c1cccc(CC(C)(C#N)c2ccc3cc(CC)c(=O)[nH]c3c2)n1` (centres unmarked) [Compound 215], 2000 nM; for `CCc1cc2ccc(C(C)(C#N)Cc3cccc(COC)n3)cc2[nH]c1=O` (centres unmarked) [Compound 216], 1260 nM.
Under `CCc1cc2ccc(C(C)(C#N)Cc3cccc(OCCOC)n3)cc2[nH]c1=O` (centres unmarked) [Compound 219] stands 398 nM.
Under `CCc1cc2ccc(C(C)(C#N)Cc3cccc(CN)n3)cc2[nH]c1=O` (centres unmarked) [Compound 221] stands 251 nM.
As for `CCc1cc2ccc(C(C)(C#N)Cc3cccc(OCCO)c3)cc2[nH]c1=O` (centres unmarked) [Compound 262], the IC50 was 631 nM.
For `CCc1cc2ccc(C(C)(C#N)CCOc3cccc(C(F)(F)F)c3)cc2[nH]c1=O` (centres unmarked) [Compound 274] the value was 2510 nM; for `CCc1cc2ccc(C(C)(C#N)Cc3cccc(CN)c3)cc2[nH]c1=O` (centres unmarked) [Compound 290], 316 nM; for `CCc1cc2ccc(C(C)(C#N)Cc3cccc(/C=C/S(C)(=O)=O)c3)cc2[nH]c1=O` (centres unmarked) [Compound 292], 126 nM.
For `CCc1c(Cl)c2ccc(C(C)(C#N)Cc3cccc(C#N)c3)cc2[nH]c1=O` (centres unmarked) [Compound 293] the value was 1000 nM; for `CCc1cc2cc(OC)c(C(C)(C#N)Cc3ccccc3)cc2[nH]c1=O` (centres unmarked) [Compound 294], 158 nM.
In the case of `CCc1cc2ccc(C(C)(C#N)Cc3cccc(C#CCOC)c3)cc2[nH]c1=O` (centres unmarked) [Compound 297], the IC50 was 1580 nM.
Under `CCc1cc2ccc(C(C)(C#N)Cc3cccc(C#CCN(C)C)c3)cc2[nH]c1=O` (centres unmarked) [Compound 298] stands 1580 nM; under `CCc1cc2ccc(C(C)(C#N)CNCc3cccc(C#N)c3)cc2[nH]c1=O` (centres unmarked) [Compound 301], 79.4 nM; under `CCc1cc2ccc(C(C)(C#N)Cc3cnc(Cl)nc3Cl)cc2[nH]c1=O` (centres unmarked) [Compound 306], 126 nM.
For `COc1cc(OC)nc(CC(C)(C#N)c2ccc3cc(C)c(=O)[nH]c3c2)n1` (centres unmarked) [Compound 308], the IC50 is 3160 nM.
For `CCOc1cc(OCC)nc(CC(C)(C#N)c2ccc3cc(CC)c(=O)[nH]c3c2)n1` (centres unmarked) [Compound 309] the value was 2000 nM; for `CCc1cc2ccc(C(C)(C#N)Cc3cccc(Cl)n3)cc2[nH]c1=O` (centres unmarked) [Compound 310], 251 nM.
For `CCc1cc2ccc(C(C)(C#N)Cc3ncc(C)c(OC)c3C)cc2[nH]c1=O` (centres unmarked) [Compound 311] the value was 1260 nM; for `CCc1cc2ccc(C(C)(C#N)Cc3ccc(C)nc3)cc2[nH]c1=O` (centres unmarked) [Compound 327], 631 nM; for `CCc1cc2ccc(C(C)(C#N)Cc3cccc(C#N)n3)cc2[nH]c1=O` (centres unmarked) [Compound 329], 316 nM.
Under `CCCn1ccnc1CC(C)(C#N)c1ccc2cc(CC)c(=O)[nH]c2c1` (centres unmarked) [Compound 335] stands 501 nM.
Turning to `CCc1cc2ccc(C(C)(C#N)Cc3ccc4ccccc4n3)cc2[nH]c1=O` (centres unmarked) [Compound 336], the IC50 is 100 nM.
Under `CCc1cc2ccc(C(C)(C#N)Cc3nccn3CC)cc2[nH]c1=O` (centres unmarked) [Compound 337] stands 631 nM.
